Experimental data from US7266458B2, “BioMAP analysis” (Bioseek, Inc., priority 2000, dated 2007).

Columns and labels:
[1] = test system: human umbilical vein endothelial cells (HUVEC); assay: Optimized inflammatory assay combination (IL-1+TNF-α+IFN-γ) with added agents, cell-based ELISA biomap; conditions: for biomap in the optimized assay combination: 10 μM NHGA, 200 YM PDTC, 9 μM PD098059, 125-500 μM ibuprofen, TNF-α+IFN-γ+IL-1, 24 hours; for reference biomaps compared by pattern similarity and cluster analysis: hierarchical clustering, FIG. 4C
Description: After 24 hours, cultures are washed and evaluated for the cell surface expression of ICAM-1 (1), VCAM-1 (2), E-selectin (3), IL-8 (4), CD31 (5), HLA-DR (6) and MIG (7) by cell-based ELISA performed as described above.
Confluent cultures of HUVEC cells are treated with TNF-α (5 ng/ml)+IFN-γ (100 ng/ml)+IL-1 (1 ng/ml) in the presence or absence of agents or buffers at the concentrations indicated in Table 1. Compounds are obtained from commercial sources and prepared in a suitable buffer (water, base media, DMSO, methanol or ethanol). After 24 hours, cultures are washed and evaluated for the cell surface expression of ICAM-1 (1), VCAM-1 (2), E-selectin (3), IL-8 (4), CD31 (5), HLA-DR (6) and MIG (7) by cell-based ELISA performed as described above. A color-coded representation of the resulting biomaps developed from the data is shown. […] Control assay combinations for each agent include an appropriate concentration of the diluent buffer.
Readout patterns are analyzed by hierarchical clustering techniques, and are visualized as a tree diagram in which a) each terminal branch point represents the readout pattern from one assay combination in one experiment; b) the length of the vertical distance from the upper horizontal line (no change and control patterns) to the termini are related to the extent of difference in the readout pattern from the control environment pattern; and c) the distance along, the branches from one terminal pattern value to another reflects the extent of difference between them. Similar patterns are thus clustered together.

[2] = test system: human umbilical vein endothelial cells (HUVEC); assay: Multiplex assay combinations for distinguishing mechanism of action (single cytokines, activating anti-p55); assay type: cell-based; conditions: 20 μM AA861, 10 μM NHGA
Description: Confluent cultures of HUVEC cells are treated with TNF-α (5 ng/ml), IFN-γ (100 ng/ml), IL-1 (20 ng/ml), the combination of TNF-α+IFN-γ+IL-1, or media (no cytokine) in the presence or absence of neutralizing anti-TNF-α, 20 μM AA861 or 10 μM NHGA. After 24 hours, cultures are washed and evaluated for the cell surface expression of ICAM-1 (1), VCAM-1 (2), E-selectin (3), IL-8 (4), and MIG (5) by cell-based ELISA performed as described in Example 1. A graphical representation of the resulting biomaps derived from the data is shown in FIG. 5, coded as described above.
Confirmation is performed by evaluating the test agent in assay combinations that include both physiologic and alternative pathway activators. Confluent cultures of HUVEC cells are treated with TNF-α (5 ng/ml), IL-1 (20 ng/ml), an activating antibody against the TNF-α receptor p55, or media. After 24 hours, cultures are washed and evaluated for the cell surface expression of ICAM-1 (1), VCAM-1 (2), E-selectin (3), CD31 (4), and MIG (5) by cell-based ELISA performed as described above. A graphical representation of the resulting biomap, prepared from the data is shown in FIG. 6, coded as described above.

[3] = test system: human umbilical vein endothelial cells (HUVEC); assay: Morpholino antisense in HUVEC, cell surface expression by flow cytometry; assay type: cell-based
Description: Morpholino phosphorodiamidate (MF) antisense oligonucleotides are used. Other chemical classes of antisense oligonucleotides that can be substituted for morpholinos include but are not limited to phosphorotioate oligonucleotides, N3′-P5′ phosphoramidate oligonucleotides (NP), locked nucleic acid (LNA), 2′-O-methoxyethyl nucleic acid (MOE), 2′-fluoro-arabinonucleic acid (FANA), peptide nucleic acids (PNA) (reviewed in Toulme, Nature Biotech. 19:17, 2001); siRNA (Elbashir et al. (2000) Nature 411:494-498); ribozymes (Kawasaki et al. (2002) Nat. Biotech 20:376-380); standard antisense (Veres et al. (1998) J. Virol. 72:1894-1901). In the present example, antisense oligonucleotides for TNF-R1 (p55) (5′-[…]-3′)(SEQ ID NO:1), and the beta-globin control oligo (5′-[…]-3′)(SEQ ID NO:2) (Gene Tools Inc.) are used. The transfection mixture is prepared by mixing […] of 200 mM EPEI (Ethoxylated PolyEthylenlmine), vortexed, incubated at room temperature for 20 minutes, and then mixed with 3.5 ml of serum-free media to give a final 0.6 μM morpholino concentration.
HUVEC cells are plated the day before in 24-well plates at 4-6×10e4 cells/well. Cells are washed once with serum-free media and incubated with 0.4 ml of the morpholino transfection mixture at 37° C. for 3 hours. Morpholino is removed, regular media ([…] Growth Media with 2% fetal calf serum, Clonetics) is added and cells allowed to recover overnight. The efficiency of loading of cells with morphino is monitored in cells incubated with a fluorescent morpholino, and is typically essentially 100 percent. HUVEC cells are then treated with either TNF-α (0.5 ng/ml), or IL-1 (1 ng/ml), or media only. After 4 hours, cells are harvested and evaluated for the cell surface expression of ICAM-1 (1), VCAM-1 (2), E-selectin (3), and CD31 (4) by flow cytometry. […] The TNF-R1 antisense specifically blocks induction of ICAM-1 and VCAM-1 by TNF-α, while it has no effect on induction of the same markers by the independent cell surface receptor for IL-1.

[4] = test system: human umbilical vein endothelial cells (HUVEC); assay type: cell-based; parameters: key: Active BioMap profiles (indicated as “yes”) were significantly different from the profile obtained with the control vector; BioMAP profiles that were not different from control vector are indicated as “—”; conditions: NFkB Pathway genes; TNF-alpha, IL-1, IFN-gamma individually or in combination; vs control vector, p < 0.05, n = 3
Description: High-titer retrovirus preparations are generated by transient transfection of vector construct into a retroviral packaging cell line (AmphoPack-293;Clontech). […] Expression of BioMAP markers (ICAM-1, VCAM, etc.) is measured by a cell-based ELISA technique (Melrose, 1998, supra) that has been optimized such that changes in expression levels of >20% can be routinely detected as statistically significant effects (p<0.05). […] Cells were stained with the NGFr specific monoclonal antibody (Chemicon).
In the lower two panels IFN-gamma was added to all samples. Average values (ELISA OD) from triplicate samples are shown, error bars indicate standard deviation. Control is HUVEC transduced with the “empty” vector, which only encodes NGFr marker. Data are from a representative experiment. Results were reproduced in at least two experiments with HUVEC cells from different donors.
Gene over-expression vectors were generated for many members of the NFκB and Jak/STAT pathways, and measured BioMAP profiles in transduced HUVEC cells by a cell-based ELISA technique (Melrose, 1998, supra), in the presence of TNF-alpha, IL-1, IFN-gamma, individually or in combination. […] Average values (ELISA OD) from triplicate samples are shown. Control (_-_) is HUVEC transduced with the “empty” retroviral vector, which only encodes NGFr marker. Data shown are from a representative experiment.

[5] = test system: human umbilical vein endothelial cells (HUVEC); assay: Apoptosis assay panel (ceramide, TNF-α) with LDH release and cell-based ELISA; conditions: factor added to endothelial cell cultures, vs basal conditions
Description: A panel of assay combinations that reproduces aspects of the response of the endothelial cells to inflammatory processes and stimuli enhancing apoptosis is used.
Retroviral vectors derived from the MSCV-based pMSCVneo vector (Clontech) are used to express genes in the cultured endothelial cells. […] Test genes are inserted downstream of the MSCV LTR, the marker gene is the enhanced green fluorescent protein (GFP) and the IRES is 600 bp fragment from EMCV virus (Jang, J. Virol. 63:1651, 1989). […] Retroviral vector plasmid DNA is transfected into AmphoPack-293 cells (Clontech) by modified calcium phosphate method according to manufacturer's protocol (MBS transfection kit, Stratagene). Cell supernatants are harvested 48 hours post-transfection, filtered to remove cell debris (0.45 pm) and transferred onto exponentially growing HUVEC cells. DEAE dextran (conc lopg/ml) is added to facilitate vector transduction. After a 5-8 hour incubation period viral supernatants are removed and cells cultured for an additional 40 hours. Gene transfer efficiency is determined by FACS, and is typically ≧80 percent. […] After 24 hours, transduced cells are evaluated for the surface expression ICAM-1 (1), VCAM-1 (2), and MIG (3) by cell-based ELISA for biomap analysis. For the expanded biomap, cell supernatants at 24 hours are collected and analyzed for the presence of LDH (4).

[6] = test system: human umbilical vein endothelial cells (HUVEC); assay: HUVEC treated with proinflammatory cytokines, readout parameters by cell-based ELISA; conditions: HUVEC cultured with cytokine(s) 24 hours, vs basal medium
Description: Primary human umbilical vein endothelial cells (HUVEC) are used. […] 2×10^4 cells/ml are cultured to confluence in EGM-2 (Clonetics).
After 24 hours, cultures are washed and evaluated for the presence of the parameters ICAM-1 (1), VCAM-1 (2), E-selectin (3), IL-8 (4), CD31 (5), HLA-DR (6) and MIG (7) by cell-based ELISA as described (Melrose, J. Immunol. 161:2457, 1998). For this, plates are blocked with 1% Blotto for 1 hr, and treated with primary antibodies (obtained from Pharmingen and Becton Dickinson) at 1 ng/ml for 2 hr. After washing, secondary peroxidase-conjugated anti-mouse IgG antibody (Promega) at 1:2500 is applied for 45 min. After washing, TMB substrate (Kierkegaard & Perry) is added and color developed. Development is stopped by addition of H2SO4 and the absorbance at 450 nm (subtracting the background absorbance at 600 nm) is read with a Molecular Dynamics plate reader. The relative expression levels of each parameter are indicated by the OD at 450 nm shown along the y-axis. The mean +/−SD from triplicate samples is shown.
After 24 hours, cultures are washed and evaluated for the presence of the parameters ICAM-1 (1), VCAM-1 (2), E-selectin (3), IL-8 (4), CD31 (5), HLA-DR (6) and MIG (7) by cell-based ELISA performed as described above, and are reported as the OD at 450 nm. The mean +/−SD from triplicate samples are shown. * indicates p<0.05 comparing results obtained with the two separate conditions.

[7] = 0.6 μM morpholino, IL-1 1 ng/ml, 4 hours
[8] = 0.6 μM morpholino, TNF-α 0.5 ng/ml, 4 hours

CC(Cc1ccc(O)c(O)c1)C(C)Cc1ccc(O)c(O)c1 (stereo not drawn) [NHGA, nordihydroguaiaretic acid]
biomap in the optimized assay combination [1]: altered biomaps | reference biomaps compared by pattern similarity and cluster analysis [1]: have similar reference biomaps and cluster together | cytokine signaling pathways targeted in the panel [2]: target multiple cytokine signaling pathways

COc1cccc(-c2cc(=O)c3ccccc3o2)c1N [PD098059]
biomap in the optimized assay combination [1]: altered biomaps | reference biomaps compared by pattern similarity and cluster analysis [1]: remain in the same cluster

S=C(S)N1CCCC1 [PDTC, pyrrolidine dithiocarbamate]
biomap in the optimized assay combination [1]: altered biomaps | reference biomaps compared by pattern similarity and cluster analysis [1]: have similar reference biomaps and cluster together

O=C(NC1=CC(=O)c2ccccc2C1=O)c1ccccc1 [PPM-18]
reference biomaps compared by pattern similarity and cluster analysis [1]: have similar reference biomaps and cluster together

O=c1cc(-c2ccc(O)cc2)oc2cc(O)cc(O)c12 [apigenin]
reference biomaps compared by pattern similarity and cluster analysis [1]: have similar reference biomaps and cluster together

CC(C)Cc1ccc(C(C)C(=O)O)cc1 (stereo not drawn) [ibuprofen]
biomap in the optimized assay combination [1]: visually different representations of biomaps

C[C@]12C=CC(=O)C=C1CC[C@@H]1[C@@H]2[C@@H](O)C[C@@]2(C)[C@H]1CC[C@]2(O)C(=O)CO [prednisolone]
reference biomaps compared by pattern similarity and cluster analysis [1]: related reference biomaps that are distinct from those of NFκB pathway inhibitors

TNF-R1 antisense: morpholino antisense oligonucleotide for TNF-R1 (p55), 5′-AGGTCAGGCACGGTGGAGAGGC-3′ (SEQ ID NO:1) (all phosphorodiamidate morpholino (PMO))
biomap vs control oligo biomap upon treatment with TNF-α [3]: altered biomap | induction of ICAM-1 by IL-1 [3, 7]: no effect | induction of VCAM-1 by IL-1 [3, 7]: no effect | induction of ICAM-1 by TNF-α [3, 8]: blocks | induction of VCAM-1 by TNF-α [3, 8]: blocks

TNFA
BioMAP readout [4]: yes

ceramide
cell damage as release of cytoplasmic lactate dehydrogenase into the supernatant [5]: enhanced

B1: IFN-γ: cytokine added to HUVEC (protein)
chain: QDPYVKEAENLKKYFNAGHSDVADNGTLFLGILKNWKEESDRKIMQSQIVSFYFKLFKNFKDDQSIQKSVETIKEDMNVKFFNSNKKKRDDFEKLTNYSVTDLNVQRKAIHELIQVMAELSPAAKTGKRKRSQMLFRGRRASQ
ICAM-1 level ([6]; TNF-α 5 ng/ml, IFN-γ 100 ng/ml, IL-1 1 ng/ml): increased | HLA-DR level [6]: increased | MIG level [6]: increased
